Measured values reported in patent publication US20100093811A1 (priority 2007, published 2010).
pIC50: −log10 of the molar value. Counter-ions that a name gives are not always drawn. Like-named read-outs stand apart in the source and are kept apart here.

Tests used:
wild-type HIV-1 protease = wild-type HIV-1 protease (Human immunodeficiency virus type 1 group M subtype B, UniProt P04585); assay: Assay for inhibition of microbial expressed HIV protease; type: biochemical
In short: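 Inhibition taken from HPLC (C18) product peak areas after phosphoric acid quench. Reaction: 440 micromolar Val-Ser-Gln-Asn-(betanapthyl)Ala-Pro-Ile-Val peptide, 5 pM E. coli-made protease, 1 h at 30° C, following 30 min room-temperature inhibitor preincubation in pH 5.5 acetate/NaCl/BSA buffer.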

[1] = test system: acute HIV infection of T-lymphoid cells; assay: Assay for inhibition of HIV replication (spread assay); type: cell-based, HIV-1; settings: read-out: Spread - IC95
Description: • Assay for Inhibition of HIV Replication
Assays for the inhibition of acute HIV infection of T-lymphoid cells were conducted in accordance with Vacca, J. P. et al., Proc. Natl. Acad. Sci. USA 1994, 91: 4096.

[2] = wild-type HIV-1 protease expressed in E. coli, peptide substrate, pH 5.5, read-out: Enzyme Inhibition - IC50
[3] = Human immunodeficiency virus 1, T-lymphoid

Row | Compound | pIC50 (wild-type HIV-1 protease; [2]) | IC95 [1, 3] | pIC50 (wild-type HIV-1 protease) | IC95 ([1]; inhibition of HIV-1 replication, 10% FBS)
1 | COC(=O)N[C@H](C(=O)N[C@H](CCC[C@@H](CO)N(CCC(C)C)S(=O)(=O)c1ccc(C(C)=O)cc1)C1CC1)C(c1ccc(F)cc1)c1ccc(F)cc1 [Example E5, N-{(1R,5S)-5-[[(4-acetylphenyl)sulfonyl](3-methylbutyl)amino]-1-cyclopropyl-6-hydroxyhexyl}-4-fluoro-β-(4-fluorophenyl)-Nα-(methoxycarbonyl)-L-phenylalaninamide] | 10.28 | 47 nM | – | –
2 | CC[C@@H](CCC[C@@H](CO)N(C(C)C)S(=O)(=O)c1ccc(C(C)=O)cc1)NC(=O)[C@@H](NC(=O)OC)C(c1ccccc1)c1ccccc1 [Example K3, N-{(1S,5S)-5-[[(4-acetylphenyl)sulfonyl](isopropyl)amino]-1-ethyl-6-hydroxyhexyl}-Nα-(methoxycarbonyl)-β-phenyl-L-phenylalaninamide] | 9.03 | 112 nM | – | –
3 | COC(=O)N[C@H](C(=O)N[C@H](CCC[C@@H](CO)N(CC(C)C)S(=O)(=O)c1ccc(N)cc1)C(F)(F)F)C(c1ccccc1)c1ccccc1 [Example H5, N-[(1R,5S)-5-[[(4-aminophenyl)sulfonyl](isobutyl)amino]-6-hydroxy-1-(trifluoromethyl)hexyl]-Nα-(methoxycarbonyl)-β-phenyl-L-phenylalaninamide] | – | 7 nM | 10.70 | –
4 | CCN([C@H](CO)CCC[C@H](C)NC(=O)[C@@H](NC(=O)OC)C(c1ccccc1)c1ccccc1)S(=O)(=O)c1ccc(N)cc1 [Example G5, N-{(1S,5S)-5-[[(4-aminophenyl)sulfonyl](ethyl)amino]-6-hydroxy-1-methylhexyl}-Nα-(methoxycarbonyl)-β-phenyl-L-phenylalaninamide] | 9.42 | 64 nM | – | –
5 | COC(=O)N[C@H](C(=O)NC1(CCC[C@@H](CO)N(CCC(C)C)S(=O)(=O)c2ccc(N)cc2)CCCC1)C(c1ccccc1)c1ccccc1 [Example L1, N-(1-{(4S)-4-[[(4-aminophenyl)sulfonyl](3-methylbutyl)amino]-5-hydroxypentyl}cyclopentyl)-Nα-(methoxycarbonyl)-β-phenyl-L-phenylalaninamide] | 9.43 | 274 nM | – | –
6 | COC(=O)N[C@@H](Cc1ccccc1Cl)C(=O)N[C@@H](C)CCC[C@@H](CO)N(C)S(=O)(=O)c1ccc(CO)cc1 [Example G8, 2-chloro-N-{(1S,5S)-6-hydroxy-5-[{[4-(hydroxymethyl)phenyl]sulfonyl}(methyl)amino]-1-methylhexyl}-Nα-(methoxycarbonyl)-L-phenylalaninamide] | 8.49 | 191 nM | – | –
7 | COC(=O)N[C@H](C(=O)N[C@H](CCC[C@@H](CO)N(CCC(C)C)S(=O)(=O)c1ccc(N)cc1)C(C)C)C(c1ccccc1)c1ccccc1 [Example D10, N-{(1R,5S)-5-[[(4-aminophenyl)sulfonyl](3-methylbutyl)amino]-6-hydroxy-1-isopropylhexyl}-Nα-(methoxycarbonyl)-β-phenyl-L-phenylalaninamide] | 10.00 | 37 nM | – | –
8 | CC[C@@H](CCC[C@@H](CO)N(CCC(C)C)S(=O)(=O)c1ccc(N)cc1)NC(=O)[C@H](Cc1ccccc1Br)NC(=O)OC [Example F3, N-{(1S,5S)-5-[[(4-aminophenyl)sulfonyl](3-methylbutyl)amino]-1-ethyl-6-hydroxyhexyl}-2-bromo-Nα-(methoxycarbonyl)-L-phenylalaninamide] | 9.71 | 25 nM | – | –
9 | COC(=O)N[C@H](C(=O)N[C@@H](C)CCC[C@@H](CO)N(CCCF)S(=O)(=O)c1ccc(CO)cc1)C(c1ccccc1)c1ccccc1 [Example G14, N-[(1S,5S)-5-((3-fluoropropyl){[4-(hydroxymethyl)phenyl]sulfonyl}amino)-6-hydroxy-1-methythexyl]-Nα-(methoxycarbonyl)-β-phenyl-L-phenylalaninamide] | 11.00 | 16 nM | – | –
10 | COC(=O)N[C@H](C(=O)N[C@H](CCC[C@@H](CO)N(CCC(C)C)S(=O)(=O)c1ccc(Cl)cc1)C1CC1)C(c1ccccc1)c1ccccc1 [Example E4, N-{(1R,5S)-5-[[(4-chlorophenyl)sulfonyl](3-methylbutyl)amino]-1-cyclopropyl-6-hydroxyhexyl}-Nα-(methoxycarbonyl)-β-phenyl-L-phenylalaninamide] | 9.70 | 22 nM | – | –
11 | COC(=O)N[C@H](C(=O)N[C@@H](C)CCC[C@@H](CO)N(CC(C)C)S(=O)(=O)c1ccc(CO)cc1)C(c1ccccc1)c1ccccc1 [Example G16, N-{(1S,5S)-6-hydroxy-5-[{[4-(hydroxymethyl)phenyl]sulfonyl}(isobutyl)amino]-1-methylhexyl}-Nα-(methoxycarbonyl)-β-phenyl-L-phenylalaninamide] | 11.00 | 8 nM | – | –
12 | CCN([C@H](CO)CCC[C@@H](NC(=O)[C@@H](NC(=O)OC)C(c1ccccc1)c1ccccc1)C1CC1)S(=O)(=O)c1ccc(N)cc1 [Example I10, N-{(1R,5S)-5-[[(4-aminophenyl)sulfonyl](ethyl)amino]-1-cyclopropyl-6-hydroxyhexyl}-Nα-(methoxycarbonyl)-β-phenyl-L-phenylalaninamide] | 9.13 | 105 nM | – | –
13 | COC(=O)N[C@H](C(=O)N[C@H](CCC[C@@H](CO)N(CCC(C)C)S(=O)(=O)c1ccc(CO)cc1)C1CC1)C(c1ccc(F)cc1)c1ccc(F)cc1 [Example J16, N-{(1R,55)-1-cyclopropyl-6-hydroxy-5-[{[4-(hydroxymethyl)phenyl]sulfonyl}(3-methylbutyl)amino]hexyl}-4-fluoro-β-(4-fluorophenyl)-Nα-(methoxycarbonyl)-L-phenylalaninamide] | 11.00 | 25 nM | – | –
14 | COC(=O)N[C@H](C(=O)N[C@H](CCC[C@@H](CO)N(CCC(C)C)S(=O)(=O)c1ccc(CO)cc1)C(C)C)C(c1ccccc1)c1ccccc1 [Example J9, N-{(1R,5S)-6-hydroxy-5-[{[4-(hydroxymethyl)phenyl]sulfonyl}(3-methylbutyl)amino]-1-isopropylhexyl}-Nα-(methoxycarbonyl)-β-phenyl-L-phenylalaninamide] | 10.16 | 23 nM | – | –
15 | COC(=O)N[C@H](C(=O)N[C@H](CCC[C@@H](CO)N(CC(C)C)S(=O)(=O)c1ccc(CO)cc1)C1CC1)C(c1ccc(F)cc1)c1ccc(F)cc1 [Example J23, N-{(1R,5S)-1-cyclopropyl-6-hydroxy-5-[{[4-(hydroxymethyl)phenyl]sulfonyl}(isobutyl)amino]hexyl}-4-fluoro-β-(4-fluorophenyl)-Nα-(methoxycarbonyl)-L-phenylalaninamide] | 10.60 | 60 nM | – | –
16 | COC(=O)N[C@H](C(=O)N[C@H](CCC[C@@H](CO)N(CCC(C)C)S(=O)(=O)c1ccc(N)cc1)C(F)(F)F)C(c1ccccc1)c1ccccc1 [Example H2, N-[(1R,5S)-5-[[(4-aminophenyl)sulfonyl](3-methylbutyl)amino]-6-hydroxy-1-(trifluoromethyl)hexyl]-Nα-(methoxycarbonyl)-β-phenyl-L-phenylalaninamide] | – | 4 nM | 11.00 | –
17 | Cc1ccc(S(=O)(=O)N(CCC(C)C)[C@H](CO)CC(C)CCNC(=O)[C@@H](N)C(c2ccccc2)c2ccccc2)cc1 (stereo partly drawn) [Example B1, (2S)-2-amino-N-((5S)-6-hydroxy-3-methyl-5-{(3-methylbutyl)[(4-methylphenyl)-sulfonyl]amino}hexyl)-3,3-diphenylpropanamide] | 9.29 | 500 nM | – | –
18 | CC[C@@H](CCC[C@@H](CO)N(CCC(C)C)S(=O)(=O)c1ccc(CO)cc1)NC(=O)[C@@H](N)C(c1ccccc1)c1ccccc1 [Example J31, N-{(1S,5S)-1-ethyl-6-hydroxy-5-[{[4-(hydroxymethyl)phenyl]sulfonyl}(3-methylbutyl)amino]hexyl}-β-phenyl-L-phenylalaninamide hydrochloride] | – | 23 nM | 11.00 | –
19 | COC(=O)N[C@H](C(=O)NC(C)(C)CCC[C@@H](CO)N(CCCF)S(=O)(=O)c1ccc(N)cc1)C(c1ccccc1)c1ccccc1 [Example L7, N-{(5S)-5-[[(4-aminophenyl)sulfonyl](3-fluoropropyl)amino]-6-hydroxy-1,1-dimethylhexyl}-Nα-(methoxycarbonyl)-β-phenyl-L-phenylalaninamide] | 10.21 | 178 nM | – | –
20 | Methyl {(1S)-1-(diphenylmethyl)-2-[((5S)-6-hydroxy-2-methyl-5-{(3-methylbutyl) [(4-methylphenyl)sulfonyl]amino}hexylamino]-2-oxoethyl}carbamate [Example C1] | 9.70 | – | – | 193 nM
